# Measured values from PubChem BioAssay (NCI).
#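 Interpolation was linear, between the two tested concentrations surrounding the appropriate level; five concentrations were tested over 48 hours in 96-well plates. TGI denotes the concentration required for complete inhibition of growth.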
# What was measured:
# Assay in all cases: DTP human tumour cell line panel, 48 h
# MOLT-4 leukemia = test system: MOLT-4 leukemia
# SK-MEL-28 melanoma = test system: SK-MEL-28 melanoma
# HOP-92 NSCLC = test system: HOP-92 NSCLC
# SK-MEL-2 melanoma = test system: SK-MEL-2 melanoma
# T-47D breast = test system: T-47D breast
# OVCAR-8 ovarian = test system: OVCAR-8 ovarian
# NCI-H522 lung = test system: NCI-H522 lung
# K-562 leukemia = test system: K-562 leukemia
# SN12C renal = test system: SN12C renal
# HS 578T breast = test system: HS 578T breast
# RXF 393 renal = test system: RXF 393 renal
# ACHN renal = test system: ACHN renal
# SNB-19 CNS = test system: SNB-19 CNS
# HL-60(TB) leukemia = test system: HL-60(TB) leukemia
# DU-145 prostate = test system: DU-145 prostate
# UACC-257 melanoma = test system: UACC-257 melanoma
# PC-3 prostate = test system: PC-3 prostate
# HT29 colon = test system: HT29 colon
# SF-268 CNS = test system: SF-268 CNS
# MDA-MB-435 = test system: MDA-MB-435
# RPMI-8226 leukemia = test system: RPMI-8226 leukemia
# HCT-15 colon = test system: HCT-15 colon
# CAKI-1 renal = test system: CAKI-1 renal
# OVCAR-5 ovarian = test system: OVCAR-5 ovarian
# M14 melanoma = test system: M14 melanoma
# SK-MEL-5 melanoma = test system: SK-MEL-5 melanoma
# A549 NSCLC = test system: A549 NSCLC
# EKVX NSCLC = test system: EKVX NSCLC
# UO-31 renal = test system: UO-31 renal
# HCC-2998 colon = test system: HCC-2998 colon
# 786-0 renal = test system: 786-0 renal
# SF-539 CNS = test system: SF-539 CNS
# COLO 205 colon = test system: COLO 205 colon
# SNB-75 CNS = test system: SNB-75 CNS
# SF-295 CNS = test system: SF-295 CNS
# UACC-62 melanoma = test system: UACC-62 melanoma
# HCT-116 colon = test system: HCT-116 colon
# SK-OV-3 ovarian = test system: SK-OV-3 ovarian
# NCI/ADR-RES ovarian = test system: NCI/ADR-RES ovarian
# MALME-3M melanoma = test system: MALME-3M melanoma
# SW-620 colon = test system: SW-620 colon
# MDA-N = test system: MDA-N
# NCI-H23 lung = test system: NCI-H23 lung
# U251 CNS = test system: U251 CNS
# A498 renal = test system: A498 renal
# NCI-H460 lung = test system: NCI-H460 lung
# MCF7 breast = test system: MCF7 breast
# NCI-H226 lung = test system: NCI-H226 lung
# TK-10 renal = test system: TK-10 renal
# IGROV1 ovarian = test system: IGROV1 ovarian
# CCRF-CEM leukemia = test system: CCRF-CEM leukemia
# KM12 colon = test system: KM12 colon
# HOP-62 NSCLC = test system: HOP-62 NSCLC
# SR leukemia = test system: SR leukemia
# MDA-MB-231 breast = test system: MDA-MB-231 breast
# OVCAR-4 ovarian = test system: OVCAR-4 ovarian
# LOX IMVI melanoma = test system: LOX IMVI melanoma
# BT-549 breast = test system: BT-549 breast
# OVCAR-3 ovarian = test system: OVCAR-3 ovarian
structure (smiles),measurement,setting,value
O=C1OC[C@@H]2Cc3c([nH]c4ccccc34)[C@@H](c3cc(O)c(O)c(O)c3)N12,TGI,MOLT-4 leukemia,85.9 µM
same,TGI,SK-MEL-28 melanoma,42.9 µM
same,TGI,HOP-92 NSCLC,> 100 µM
same,TGI,SK-MEL-2 melanoma,18.9 µM
same,TGI,T-47D breast,> 100 µM
same,TGI,OVCAR-8 ovarian,41.8 µM
same,TGI,NCI-H522 lung,22.8 µM
same,TGI,K-562 leukemia,58.7 µM
same,TGI,SN12C renal,98.9 µM
same,TGI,HS 578T breast,76.2 µM
same,TGI,RXF 393 renal,45.6 µM
same,TGI,ACHN renal,> 100 µM
same,TGI,SNB-19 CNS,69.1 µM
same,TGI,HL-60(TB) leukemia,15 µM
same,TGI,DU-145 prostate,> 100 µM
same,TGI,UACC-257 melanoma,9.73 µM
same,TGI,PC-3 prostate,> 100 µM
same,TGI,HT29 colon,> 100 µM
same,TGI,SF-268 CNS,> 100 µM
same,TGI,MDA-MB-435,25.9 µM
same,TGI,RPMI-8226 leukemia,65.8 µM
same,TGI,HCT-15 colon,> 100 µM
same,TGI,CAKI-1 renal,> 100 µM
same,TGI,OVCAR-5 ovarian,46.2 µM
same,TGI,M14 melanoma,36.7 µM
same,TGI,SK-MEL-5 melanoma,29.2 µM
same,TGI,A549 NSCLC,> 100 µM
same,TGI,EKVX NSCLC,> 100 µM
same,TGI,UO-31 renal,> 100 µM
same,TGI,HCC-2998 colon,> 100 µM
same,TGI,786-0 renal,56.1 µM
same,TGI,SF-539 CNS,37.9 µM
same,TGI,COLO 205 colon,42.6 µM
same,TGI,SNB-75 CNS,60.9 µM
same,TGI,SF-295 CNS,34 µM
same,TGI,UACC-62 melanoma,75.5 µM
same,TGI,HCT-116 colon,61.5 µM
same,TGI,SK-OV-3 ovarian,> 100 µM
same,TGI,NCI/ADR-RES ovarian,72.3 µM
same,TGI,MALME-3M melanoma,49.7 µM
same,TGI,SW-620 colon,53.4 µM
same,TGI,MDA-N,82.5 µM
same,TGI,NCI-H23 lung,98.6 µM
same,TGI,U251 CNS,59.8 µM
same,TGI,A498 renal,48 µM
same,TGI,NCI-H460 lung,> 100 µM
same,TGI,MCF7 breast,84.1 µM
same,TGI,NCI-H226 lung,49.9 µM
same,TGI,TK-10 renal,> 100 µM
same,TGI,IGROV1 ovarian,49.7 µM
same,TGI,CCRF-CEM leukemia,54.3 µM
same,TGI,KM12 colon,> 100 µM
same,TGI,HOP-62 NSCLC,67.8 µM
same,TGI,SR leukemia,61.9 µM
same,TGI,MDA-MB-231 breast,42.3 µM
same,TGI,OVCAR-4 ovarian,26.1 µM
Fc1cc(-c2ncc(Cl)cc2Cl)c2cccccc1-2,TGI,OVCAR-8 ovarian,> 100 µM
same,TGI,NCI-H522 lung,> 100 µM
same,TGI,HS 578T breast,> 100 µM
same,TGI,RXF 393 renal,> 100 µM
same,TGI,ACHN renal,> 100 µM
same,TGI,SNB-19 CNS,> 100 µM
same,TGI,DU-145 prostate,> 100 µM
same,TGI,UACC-257 melanoma,> 100 µM
same,TGI,PC-3 prostate,> 100 µM
same,TGI,HT29 colon,> 100 µM
same,TGI,SF-268 CNS,> 100 µM
same,TGI,HCT-15 colon,> 100 µM
same,TGI,CAKI-1 renal,> 100 µM
same,TGI,OVCAR-5 ovarian,> 100 µM
same,TGI,M14 melanoma,> 100 µM
same,TGI,SK-MEL-5 melanoma,> 100 µM
same,TGI,A549 NSCLC,> 100 µM
same,TGI,LOX IMVI melanoma,> 100 µM
same,TGI,EKVX NSCLC,> 100 µM
same,TGI,UO-31 renal,> 100 µM
same,TGI,HCC-2998 colon,> 100 µM
same,TGI,786-0 renal,> 100 µM
same,TGI,SF-539 CNS,> 100 µM
same,TGI,COLO 205 colon,> 100 µM
same,TGI,SNB-75 CNS,> 100 µM
same,TGI,SF-295 CNS,> 100 µM
same,TGI,UACC-62 melanoma,> 100 µM
same,TGI,BT-549 breast,> 100 µM
same,TGI,HCT-116 colon,> 100 µM
same,TGI,SK-OV-3 ovarian,> 100 µM
same,TGI,NCI/ADR-RES ovarian,> 100 µM
same,TGI,MALME-3M melanoma,> 100 µM
same,TGI,MDA-N,> 100 µM
same,TGI,NCI-H23 lung,> 100 µM
same,TGI,NCI-H460 lung,> 100 µM
same,TGI,MCF7 breast,> 100 µM
same,TGI,NCI-H226 lung,> 100 µM
same,TGI,TK-10 renal,> 100 µM
same,TGI,OVCAR-3 ovarian,> 100 µM
same,TGI,IGROV1 ovarian,> 100 µM
same,TGI,KM12 colon,> 100 µM
same,TGI,HOP-62 NSCLC,> 100 µM
same,TGI,MDA-MB-231 breast,> 100 µM
